Assay [1] deals with mouse myoblast cell line (C2C12 cells). The experiment in a line: Giemsa-Wright staining; thickness, length and fusion index of myotubes reduced by dexamethasone. The class given is cell-based. To be noted: 100 μM suberic acid + 50 μM dexamethasone, 2 days, vs dexamethasone alone. The method, then:
(§1) A mouse myoblast cell line (C2C12 cells) was purchased from the American Type Culture Collection (ATCC, Manassas, Va., USA), and the purchased cells were cultured at 37° C. in a 5% CO2 incubator using a 10% fetal bovine serum medium (Gibco-BRL). When the cultured cells reached 80% confluence, the cells were differentiated into myotubes using a 2% horse serum medium (Gibco-BRL).
(§2) From the fourth day of differentiation, the cells were treated with 50 μM dexamethasone (dexa; Sigma) and 100 μM suberic acid (CAS Number 505-48-6, Sigma) for 2 days.
(§3) The cells were treated with 50 μM dexamethasone (dexa; Sigma) in the same manner as in Example 1.
The myotubes prepared in Example 1 were washed twice with phosphate-buffered saline (PBS), and then immobilized with 100% methanol for 10 minutes. When the immobilization was completed, the myotubes were air-dried at room temperature for 10 minutes, and then stained for 30 minutes by dropwise addition of a Giemsa-Wright staining solution (ASAN Pharmaceutical Co., Ltd., Seoul) which is used to specifically stain myotubes.
The myotubes thus stained were photographed at 100× and 40× magnifications using a fluorescence microscope (IX 71, Olympus), and then analyzed using Image J software (USA). Six regions in each well were randomly selected and photographed using a microscope. The thicknesses, lengths and fusion indexes of at least 100 myoblast cells in each well were analyzed (in triplicate/group).

Assay [2] has as its system C57BL/6N mice. The experiment in a line: Grip strength test in high-fat diet-induced muscle loss mice. To be noted: 0.2% suberic acid in high fat diet, 10 weeks, force (N) per weight (kg), vs high-fat diet mice; FIG. 3 (B). The format is in vivo, mouse. From the text: (§4) Twenty-four 5-week-old male C57BL/6N mice (Mating, Korea) were adapted to laboratory circumstances for a week while feeding a commercially available normal diet (rodent chow), and then assigned into three groups (a Chow group, a HFD group, and a suberic acid-treated group; n=8 mice per group) according to a randomized block design, and bred for 10 weeks. An obesity-inducing diet used in this experiment was a high fat diet (HFD: 40% fat calories, 17 g of lard+3% corn oil/100 g of diet), and a suberic acid-supplemented high fat diet (Suberic Acid) had the same compositions as the HFD, provided that the suberic acid-supplemented high fat diet included 0.2% suberic acid (Table 2). A normal diet group (Chow) took a commercially available rodent chow. The suberic acid was purchased from Sigma-Aldrich Corp.
To measure grip strength of the mice, at 10 weeks of breeding, the grip strength of the mice was measured using four limbs. A force (N) generated by a mouse gripping a wire grid was measured a total of five times using a grip strength meter (Daejong Instrument Industry Co., Ltd., Korea) equipped with a wire grid (20×10 cm), and an at least one-minute break between every measurement was provided. The experimental results were calculated by dividing the measured force (N) by the weight (kg) of the mouse. […]

The subject of another assay is p-p70S6K1. Put plainly: Western blotting of p-p70S6K1 in dexamethasone-treated myotubes. The class given is cell-based, mouse. To be noted: 100 μM suberic acid + 50 μM dexamethasone, 2 days, vs dexamethasone alone; FIG. 2A. The procedure: as §1, §2, §3
(§5) To perform Western blotting in the cells, 500 μL of a lysis buffer, which included 100 mM Tris-HCl (pH 7.4), 5 mM EDTA, 50 mM sodium pyrophosphate, 50 mM NaF, 100 mM orthovanadate, 1% Triton X-100, 1 mM phenylmethanesulfonyl fluoride, 2 μg/mL aprotinin, 1 μg/mL pepstatin A, and 1 μg/mL leupeptin, was added to each well from which a medium was removed, and the cell suspension was harvested, and then centrifuged at 4° C. and 1,300×g for 20 minutes. Thereafter, the middle layer was taken, and proteins were quantified according to the Bradford method (Bio-Rad). […] The bands visualized on the X-ray film were scanned, and then quantified using Quantity One analysis software (Bio-Rad).
(Immunoblotting shows a protein as a band on a membrane.)

A further assay concerns MaFbx/atrogin-1. Put plainly: RT-PCR of MaFbx/atrogin-1 gene expression in dexamethasone-treated myotubes. The class given is cell-based, mouse. To be noted: 100 μM suberic acid + 50 μM dexamethasone, 2 days, vs dexamethasone alone; FIG. 2B. The procedure: as §1, §2, §3
(§6) 1×10^7 mouse myoblast cells were added to 334 μL of a TRIzol solution, and pulverized. Thereafter, the resulting cell solution was centrifuged at 4° C. and 12,000× g for 10 minutes. The supernatant was transferred to a new tube, and 67 μL of chloroform was added thereto, and vortexed. The supernatant was again transferred to a new tube, and isopropanol was added so that a ratio of the supernatant and isopropanol was 1:1. […] A concentration of the extracted RNA sample was measured at wavelengths of 260 nm and 280 nm using a UV/VIS spectrophotometer (Beckman coulter, DU730), and the integrity of the RNA sample was determined by means of agarose gel electrophoresis. […]

In another assay the test system is MuRF1. The experiment in a line: RT-PCR of MuRF1 gene expression in dexamethasone-treated myotubes. The class given is cell-based, mouse. To be noted: 100 μM suberic acid + 50 μM dexamethasone, 2 days, vs dexamethasone alone; FIG. 2B. The method, then: as §1, §2, §3, §6
The test system of the next assay is p-4E-BP1. The experiment in a line: Western blotting of p-4E-BP1 in dexamethasone-treated myotubes. The class given is cell-based, mouse. To be noted: 100 μM suberic acid + 50 μM dexamethasone, 2 days, vs dexamethasone alone; FIG. 2A. The method, then: as §1, §2, §3, §5
Assay [3] concerns C57BL/6N mice. Put plainly: H&E staining of muscle tissue, fiber diameter, in high-fat diet mice. The format is in vivo, mouse. To be noted: 0.2% suberic acid in high fat diet, 10 weeks, vs high-fat diet mice.
Text: as §4
A muscle tissue was extracted from a mouse, immobilized with 10% formalin, stained with a Hematoxylin and Eosin (H&E) stain, and then submitted to the Korea CFC (Gyeonggi-do, Korea). […]
The statistical analysis of all data was carried out using a statistical package for the social sciences (SPSS version 21.0, IBM, Armonk, N.Y., USA) PC package. In this case, the analyzed numerical values are expressed as the mean±SEM, and a significant difference between the groups was verified using ANOVA.

As to `O=C(O)CCCCCCC(=O)O` [suberic acid], the “increase in thickness (diameter) of the myotubes” value in assay [1] (FIG. 1B) was determined as 58%. The “increase in fusion index of the myotubes” value in assay [1] (FIG. 1C) amounted to 53%. Moreover, the “increase in length of the myotubes” value in assay [1] (FIG. 1D) was determined as 100%. Also, the “increase in grip strength of the mice” value with C57BL/6N mice [2] is on record as “approximately 21%”. Also, in the assay with p-p70S6K1, the “amount of p-p70S6K protein” value is given as “significantly increased again”. The “expression of MaFbx/atrogin-1” value in the assay on MaFbx/atrogin-1 is “significantly decreased”. In the assay with MuRF1, the “expression of MuRF1” value is “significantly decreased”. Moreover, the “amount of p-4E-BP1 protein” value in the assay with p-4E-BP1 is “significantly increased again”. The “increase in fiber diameter of the rectus femoris” value in the assay with C57BL/6N mice [3] (FIG. 4 (A)) was found to be 10%. Also, the “increase in fiber diameter of the soleus” value with C57BL/6N mice [3] (FIG. 4 (B)) stood at 15%.

The record behind these values is patent publication US11096917B2, “Composition for preventing or treating muscle diseases, comprising suberic acid or pharmaceutically acceptable salt thereof as active ingredient” (INDUSTRY-ACADEMIC COOPERATION FOUNDATION, YONSEI UNIVERSITY, priority 2017, dated 2021).
